Assay results from US9371527B2, “Compositions and methods related to protein displacement therapy for myotonic distrophy” (University of Rochester, priority 2006, dated 2016).

What was measured:
[1] = tested on: interaction of (CUG)109 RNA with MBNL1 protein; assay: Non-denaturing gel: PNA-CAG displacement of MBNL1 from (CUG)109 RNA; format: binding; conditions: PNA 4-0.25 μM, then MBNL1 200 nM 30 min
Procedure: (§1) FIGS. 30A and 30B show protein displacement therapy with peptide nucleic acid (PNA) oligomers composed of CAG repeats.
(§2) Previously it was shown that expanded CUG repeat RNA forms stable hairpin structures (Tian B, et al. RNA 2000; 6:79-87). […] This transcript was incubated 30 min with different concentrations (8, 4, 2, 1, 0.5, 0.25 μM) of PNAs containing different length of CAG repeat sequence (PNA-CAG-6, Nterm-CAGCAG; PNA-CAG-9, Nterm-CAGCAGCAG; PNA-CAG-12, Nterm-CAGCAGCAGCAG (SEQ ID NO: 14); or PNA-CAG-15, Nterm-CAGCAGCAGCAGCAG) (SEQ ID NO: 15). FIG. 30B provides a variation including 5 PNA concentrations (4, 2, 1, 0.5, 0.25 μM) and after additional 30 min incubation step with recombinant MBNL1 (200 nM). Lane “C” in each panel is a control showing migration of fluorescein-labeled (CUG)109 transcript without PNA or MBNL1. Rapid migration of this transcript is caused by hairpin formation. […] Lanes “C+” in panel “B” show controls that contain (CUG)109 transcript and MBNL1 protein without PNA. These lanes show diffuse smear of (CUG)109 transcript, due to formation of heterogenous high molecular weight RNA-protein complexes. Addition of PNA displaces the MBNL1 protein from expanded CUG repeat RNA, disrupting these complexes and reconstituting a sharp band of (CUG)109 transcript. […]

(CUG)109 hairpins = assay: Non-denaturing gel: PNA-CAG interaction with fluorescein-labeled (CUG)109 transcript; format: binding; conditions: (CUG)109 10 nM, PNA 8-0.25 μM, 30 min
Procedure: as §1, §2

[2] = biological target: T1, interaction of recombinant MBNL1 protein with (CUG)109 RNA (Homo sapiens, UniProt Q9NR56); assay: Filter binding screening assay for inhibitors of MBNL1-(CUG)109 RNA interaction; conditions: compound+(CUG)109 RNA 5 minutes, then recombinant MBNL1 15 minutes, among 9 aminoglycoside compounds tested
T1 construct: GST (with Prescission protease cleavage site) (N); made in house; host or cells: E. coli BL21(DE3)
T1 sequence (Q9NR56 1-382 isoform Q9NR56-5): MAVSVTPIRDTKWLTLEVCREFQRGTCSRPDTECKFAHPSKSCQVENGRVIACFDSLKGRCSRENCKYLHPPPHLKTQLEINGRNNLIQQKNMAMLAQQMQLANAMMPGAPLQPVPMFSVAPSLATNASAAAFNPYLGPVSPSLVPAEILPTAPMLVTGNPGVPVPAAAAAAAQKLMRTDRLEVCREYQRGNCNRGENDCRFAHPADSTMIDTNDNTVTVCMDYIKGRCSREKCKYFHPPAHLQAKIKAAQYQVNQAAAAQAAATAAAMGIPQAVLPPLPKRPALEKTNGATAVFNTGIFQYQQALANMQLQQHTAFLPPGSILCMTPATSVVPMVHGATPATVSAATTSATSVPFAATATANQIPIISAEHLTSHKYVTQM
Procedure: The order of addition was compound+(CUG)109 RNA (incubate 5 minutes), followed by recombinant MBNL1 protein (15 minute incubation), followed by application to filter.
Next, optimal conditions were defined (ionic-strength, monovalent cations, Mg^++ and other additions, temperature) for MBNL1-poly(CUG)^109 binding in solution. All forms of recombinant MBNL1 that were tested (GST fused or cleaved, full-length or truncation of C terminal hydrophobic region, 41 or 42 kD isoform) bind to poly(CUG)^109 at low protein concentration (FIG. 3, Kd values ˜10 nM), as determined by nitrocellulose filter binding assays. In this assay, nonspecific binding of labeled RNA to nitrocellulose was very low (<0.2% of maximal positive signal). As described below, disclosed herein are methods comprising a non-radioactive microtiter plate filter binding assay similar to the one used to examine binding activities of different forms of recombinant MBNL1 in FIG. 3.
The two components of this assay, fluorescence-labeled poly(CUG)^109 (FIG. 2B) and recombinant MBNL1 (FIG. 2A), have been developed and optimal conditions for MBNL1 binding to poly(CUG)^exp have been defined (50 mM Tris pH 8.0, 50 mM NaCl, 50 mM KCl, 1 mM Mg^++, 0.1 mM DTT) (see Preliminary Studies). Pilot binding assays have been carried out using nitrocellulose filters (FIG. 3A). […]

Substance | inhibition of interaction of (CUG)109 RNA with MBNL1 protein [1] | interaction with expanded CUG repeat hairpin structures (gel migration of (CUG)109 transcript) ((CUG)109 hairpins) | activity to inhibit formation of MBNL1-poly(CUG)^exp RNA-protein complexes [2]
PNA-CAG-15: peptide nucleic acid Nterm-CAGCAGCAGCAGCAG (all peptide nucleic acid (PNA)) | inhibit the interaction of (CUG)109 RNA with MBNL1 protein | can invade (CUG)109 hairpins | –
gentamicin | – | – | highest activity
PNA-CAG-12: peptide nucleic acid Nterm-CAGCAGCAGCAG (all peptide nucleic acid (PNA)) | inhibit the interaction of (CUG)109 RNA with MBNL1 protein | can invade (CUG)109 hairpins | –
